Assay results published in PubChem BioAssay (NCI).
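Cells were grown in 96-well plates and exposed to each compound for 48 hours at five concentrations; endpoints were interpolated linearly between bracketing concentrations, or set to the highest concentration if not reached. The concentration for full growth arrest is given as TGI.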

Key:
Test in all cases: DTP human tumour cell line panel, 48 h
DLD-1 colon = system: DLD-1 colon
DMS 114 small cell lung = system: DMS 114 small cell lung
DMS 273 small cell lung = system: DMS 273 small cell lung
KM20L2 colon = system: KM20L2 colon
LXFL 529 NSCLC = system: LXFL 529 NSCLC
M19-MEL melanoma = system: M19-MEL melanoma
SNB-78 CNS = system: SNB-78 CNS
XF 498 CNS = system: XF 498 CNS
RXF-631 renal = system: RXF-631 renal

SMILES	TGI (DLD-1 colon)	TGI (DMS 114 small cell lung)	TGI (DMS 273 small cell lung)	TGI (KM20L2 colon)	TGI (LXFL 529 NSCLC)	TGI (M19-MEL melanoma)	TGI (SNB-78 CNS)	TGI (XF 498 CNS)	TGI (RXF-631 renal)
O=C(Cc1csc(-c2nc(CC(=O)NNc3ccccc3)cs2)n1)NNc1ccccc1	> 100 µM	45.1 µM	34.2 µM	> 100 µM	> 100 µM	> 100 µM	> 100 µM	> 100 µM	
COc1ccc(C2Oc3cc(OC)c(O)c(C)c3[C@H]2C)cc1 (some centres not stated)	> 100 µM	> 100 µM	> 100 µM	> 100 µM	> 100 µM	> 100 µM	> 100 µM		
CC(C)(C)NC(=O)NC12CC3CC(CC(F)(C3)C1)C2	> 100 µM	> 100 µM	> 100 µM	> 100 µM	> 100 µM	> 100 µM	> 100 µM	> 100 µM	> 100 µM
CS(=O)(=O)c1c(N)c2nc(Cl)cn2c2nc3ccccc3nc12	> 100 µM	> 100 µM	> 100 µM	> 100 µM	> 100 µM	> 100 µM	> 100 µM	> 100 µM	> 100 µM
Clc1ccccc1C1=NN(c2ccccc2)C2c3ccccc3OCC12 (configuration not stated)	> 100 µM	> 100 µM	> 100 µM	> 100 µM	> 100 µM	> 100 µM	> 100 µM	> 100 µM	> 100 µM
CC(C)CCC[C@@H](C)C1CCC2[C@@H]3CC=C4C[C@@H](C(=O)NCC[N+](C)(C)CCCS(=O)(=O)[O-])CC[C@]4(C)C3CC[C@@]21C (some centres not stated)	49.7 µM	35.7 µM	31.4 µM	30.4 µM	33.3 µM	31.1 µM	37.4 µM		34.6 µM
CCN1C[C@]2(C)CC[C@H](OC)C34C1C([C@H](OC(C)=O)[C@@H]32)[C@@]1(OC)C[C@H](OC)[C@H]2C[C@@H]4[C@@H]1[C@H]2O	> 100 µM	> 100 µM	> 100 µM	> 100 µM	> 100 µM	> 100 µM	> 100 µM	> 100 µM	
c1ccc(C2=NOC3(c4ccccc4)SC4CCCCC4CN23)cc1 (configuration not stated)	> 100 µM	30.5 µM	77.3 µM	> 100 µM	27 µM	> 100 µM	91.7 µM	> 100 µM	
CN(C)/N=C(/c1nc2ccc([N+](=O)[O-])cc2[nH]c1=O)C(O)c1ccco1 (configuration not stated)	> 100 µM	> 100 µM	> 100 µM	> 100 µM	> 100 µM	> 100 µM	> 100 µM	> 100 µM	
O=c1[nH]c2cc([N+](=O)[O-])ccc2nc1/C(=N/Nc1ccccc1)C(O)c1ccc(C(O)/C(=N\Nc2ccccc2)c2cnc3cc([N+](=O)[O-])ccc3n2)cc1 (configuration not stated)		> 100 µM		> 100 µM		> 100 µM			
